# Biological target: herpes protease (HSV-1 UL26 product, Pra) (Human herpesvirus 1, UniProt P10210)
# Assay type: biochemical
# herpes protease (HSV-1 UL26 product, Pra), sequence (P10210 whole entry, looked up): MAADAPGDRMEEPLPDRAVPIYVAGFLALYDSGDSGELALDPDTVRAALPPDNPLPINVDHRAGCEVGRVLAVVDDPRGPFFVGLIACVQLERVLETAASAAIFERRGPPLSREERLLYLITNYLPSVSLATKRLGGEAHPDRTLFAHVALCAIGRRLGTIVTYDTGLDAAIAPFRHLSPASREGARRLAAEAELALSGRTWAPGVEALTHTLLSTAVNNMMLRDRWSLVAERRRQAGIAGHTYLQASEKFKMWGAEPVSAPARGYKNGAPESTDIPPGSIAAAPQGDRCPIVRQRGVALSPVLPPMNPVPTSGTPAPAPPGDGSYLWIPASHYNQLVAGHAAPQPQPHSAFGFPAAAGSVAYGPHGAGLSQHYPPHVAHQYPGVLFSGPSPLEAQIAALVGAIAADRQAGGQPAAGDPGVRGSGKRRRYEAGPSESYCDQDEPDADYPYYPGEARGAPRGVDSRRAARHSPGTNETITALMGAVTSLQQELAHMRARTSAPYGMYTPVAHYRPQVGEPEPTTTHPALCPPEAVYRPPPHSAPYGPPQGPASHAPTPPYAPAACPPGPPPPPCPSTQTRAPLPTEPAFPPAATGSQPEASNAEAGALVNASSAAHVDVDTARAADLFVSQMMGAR
Compound,inhibition of the protease self-cleavage,inhibition of the protease [%]
O=S(=O)(F)Cc1ccccc1 [Phenylmethansulfonyl fluoride],partially inhibiting,
"CCCCCCCCCCCCOS(=O)(=O)[O-].[Na+] [SDS, sodium dodecyl sulphate]",100%,
CC(C)C[C@H](NC(=O)[C@@H](NC(=O)N[C@@H](Cc1ccccc1)C(=O)O)[C@@H]1CCN=C(N)N1)C(=O)N[C@H](C=O)Cc1ccccc1 [chymostatin],,100
